Experimental findings from US20250114460A1, “NOVEL PLK1 DEGRADATION INDUCING COMPOUND” (UPPTHERA, INC., priority 2021, published 2025) are described below.

pIC50: −log10 of the molar value.

Holding throughout (type): cell-based
One assay deals with T1, PLK1 (Homo sapiens, UniProt P53350).
T1 construct: endogenous in cells; host or cells: HeLa LgBit (Plk1-HiBit KI): HeLa stably expressing LgBit, with a CRISPR/Cas9 knock-in of HiBit at the endogenous PLK1 locus
Briefly: Luciferase assay for PLK1 in HeLa LgBit (Plk1-HiBit KI) cell line. Conditions: 300 nM compound, luminescence after 9 hours. The method in brief:
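HeLa cells stably expressing LgBit, with HiBit knocked in at the C-terminus of endogenous Plk1, released from a 24 h 2 mM thymidine block and grown 18 h. Endurazine added, then compound at 300 nM; luminescence tracked in real time, expressed as ratio to DMSO.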
For orientation: With HiBiT, luminescence reflects the tagged protein that the partner subunit can reach.

The next assay relates to NCI-H526 cell line. Briefly: Cell viability assay for H526 cell (EZ-Cytox). The note with it: Homo sapiens, NCI-H526, 120 h; H526 cells, 5 days, 3000 nM to 0.46 nM. The procedure, abridged: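 NCI-H526 cells were exposed to compound in CO2 incubator culture for 5 days. Viability was read by EZ-Cytox absorbance at 450 nm after 3 min shaking, giving IC50 values.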
The next assay relates to MRC-5 cell line. Briefly: Cell viability assay for MRC-5 cell line (EZ-Cytox). The note with it: Homo sapiens, MRC5, 120 h; MRC-5 normal cell line, 5 days, 10000 nM to 1.52 nM; N.D. = no cytotoxicity until 10 μM; read-out: Activity: IC50 value of Exemplary Compound to MRC-5 cell line. The method, then:
4. Cell Viability Assay for MRC-5 Cell Line
(1) Culture of MRC-5 Cell Line
Passage of cultured cells was maintained within P15.
(2) Treatment of Compounds of the Present Invention
Then, it was cultured in 37° C.
(3) Cytotoxicity Experiment
CO2 incubator for 4 hours.

T1 sequence (P53350 whole entry): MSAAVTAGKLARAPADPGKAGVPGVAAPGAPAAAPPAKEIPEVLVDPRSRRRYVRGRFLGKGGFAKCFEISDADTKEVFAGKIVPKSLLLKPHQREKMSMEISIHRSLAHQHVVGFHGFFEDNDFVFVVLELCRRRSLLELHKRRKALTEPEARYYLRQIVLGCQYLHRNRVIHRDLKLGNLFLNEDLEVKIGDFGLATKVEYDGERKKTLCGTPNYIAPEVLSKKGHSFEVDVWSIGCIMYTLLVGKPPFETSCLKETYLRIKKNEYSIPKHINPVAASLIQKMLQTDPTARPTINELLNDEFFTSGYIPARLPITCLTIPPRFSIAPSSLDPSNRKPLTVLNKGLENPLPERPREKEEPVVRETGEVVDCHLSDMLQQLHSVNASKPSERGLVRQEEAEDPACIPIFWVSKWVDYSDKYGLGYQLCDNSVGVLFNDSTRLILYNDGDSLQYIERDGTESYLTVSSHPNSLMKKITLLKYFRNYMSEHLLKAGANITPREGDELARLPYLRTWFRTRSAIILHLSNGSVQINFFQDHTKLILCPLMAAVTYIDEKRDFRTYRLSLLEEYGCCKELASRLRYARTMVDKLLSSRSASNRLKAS

For orientation: pIC50 means −log10 of the IC50, conventionally taken in molar units. Consider `COc1cc(C(=O)NN2CC(N3CCN(c4ccc5c(c4)C(=O)N(C4CCC(=O)NC4=O)C5=O)CC3)C2)ccc1Nc1ncc2c(n1)N(C(C)C)CC(F)(F)C(=O)N2C` (stereo not drawn) [Compound 159, 4-((7,7-difluoro-9-isopropyl-5-methyl-6-oxo-6,7,8,9-tetrahydro-5H-pyrimido[4,5-b][1,4]diazepin-2-yl)amino)-N-(3-(4-(2-(2,6-dioxopiperidin-3-yl)-1,3-dioxoisoindolin-5-yl)piperazin-1-yl)azetidin-1-yl)-3-methoxybenzamide], for which, on PLK1, the “Activity: ratio of the luminescense value of each Exemplary Compound treatment group to DMSO treatment group” value (from here on “Activity: ratio”) is reported as “++ (++<0.6)”. Besides, the pIC50 in the assay on NCI-H526 cell line was over 7.52; with MRC-5 cell line, 5.31.
Take `COc1cc(C(=O)N[C@H]2CC[C@H](OC3CCN(c4cccc5c4C(=O)N(C4CCC(=O)NC4=O)C5=O)CC3)CC2)c(F)cc1Nc1ncc2c(n1)N(C1CCCC1)CC(F)(F)C(=O)N2C` (stereo partly drawn) [Compound 115, 4-((9-cyclopentyl-7,7-difluoro-5-methyl-6-oxo-6,7,8,9-tetrahydro-5H-pyrimido[4,5-b][1,4]diazepin-2-yl)amino)-N-((1r,4r)-4-((1-(2-(2,6-dioxopiperidin-3-yl)-1,3-dioxoisoindolin-4-yl)piperidin-4-yl)oxy)cyclohexyl)-2-fluoro-5-methoxybenzamide]: at PLK1, the “Activity: ratio” value was “++ (++<0.6)”. Also, the values for the negative logarithm of the IC50 (pIC50) in the assay on NCI-H526 cell line and in the assay on MRC-5 cell line were over 6.40 and under 5.00, respectively.
`COc1cc(C(=O)N[C@H]2CC[C@H](N(C)CCN3CCN(c4cccc5c4C(=O)N(C4CCC(=O)NC4=O)C5=O)CC3)CC2)ccc1Nc1ncc2c(n1)N(C1CCCC1)CC(F)(F)C(=O)N2C` (stereo partly drawn) [Compound 129, 4-((9-cyclopentyl-7,7-difluoro-5-methyl-6-oxo-6,7,8,9-tetrahydro-5H-pyrimido[4,5-b][1,4]diazepin-2-yl)amino)-N-((1r,4r)-4-((2-(4-(2-(2,6-dioxopiperidin-3-yl)-1,3-dioxoisoindolin-4-yl)piperazin-1-yl)ethyl)(methyl)amino)cyclohexyl)-3-methoxybenzamide]: the “Activity: ratio” value on PLK1 is “+++ (+++: <0.3)”. In addition, the pIC50 in the assay with NCI-H526 cell line is over 7.52; with MRC-5 cell line it was 4.76.
On to `COc1cc(C(=O)NN2CCC(N3CC4(CCN(c5cccc6c5C(=O)N(C5CCC(=O)NC5=O)C6=O)CC4)C3)CC2)c(F)cc1Nc1ncc2c(n1)N(C(C)C)CC(F)(F)C(=O)N2C` (stereo not drawn) [Compound 210, 4-((7,7-difluoro-9-isopropyl-5-methyl-6-oxo-6,7,8,9-tetrahydro-5H-pyrimido[4,5-b][1,4]diazepin-2-yl)amino)-N-(4-(7-(2-(2,6-dioxopiperidin-3-yl)-1,3-dioxoisoindolin-4-yl)-2,7-diazaspiro[3.5]nonan-2-yl)piperidin-1-yl)-2-fluoro-5-methoxybenzamide], for which the “Activity: ratio” value at PLK1 is “++ (++<0.6)”. The values for the pIC50 in the assay with NCI-H526 cell line and in the assay on MRC-5 cell line were over 7.30 and 4.74, respectively.
Take `COc1cc(C(=O)NC2CCN(C(=O)CCN3CCN(c4ccc5c(c4)CN(C4CCC(=O)NC4=O)C5=O)CC3)CC2)ccc1Nc1ncc2c(n1)N(C1CCCC1)CC(F)(F)C(=O)N2C` (stereo not drawn) [Compound 82, 4-((9-cyclopentyl-7,7-difluoro-5-methyl-6-oxo-6,7,8,9-tetrahydro-5H-pyrimido[4,5-b][1,4]diazepin-2-yl)amino)-N-(1-(3-(4-(2-(2,6-dioxopiperidin-3-yl)-1-oxoisoindolin-5-yl)piperazin-1-yl)propanoyl)piperidin-4-yl)-3-methoxybenzamide]: on PLK1, the “Activity: ratio” value is “++ (++<0.6)”. The pIC50 is over 7.52 in the assay on NCI-H526 cell line and under 5.00 in the assay on MRC-5 cell line.
Consider `COc1cc(C(=O)NN2CCC(CCN3CCN(c4cccc5c4C(=O)N(C4CCC(=O)NC4=O)C5=O)CC3)C2)ccc1Nc1ncc2c(n1)N(C1CCCC1)CC(F)(F)C(=O)N2C` (stereo not drawn) [Compound 151, 4-((9-cyclopentyl-7,7-difluoro-5-methyl-6-oxo-6,7,8,9-tetrahydro-5H-pyrimido[4,5-b][1,4]diazepin-2-yl)amino)-N-(3-(2-(4-(2-(2,6-dioxopiperidin-3-yl)-1,3-dioxoisoindolin-4-yl)piperazin-1-yl)ethyl)pyrrolidin-1-yl)-3-methoxybenzamide], for which, at PLK1, the “Activity: ratio” value is recorded as “++ (++<0.6)”. Besides, the negative-log IC50 (pIC50) is over 7.30 in the assay with NCI-H526 cell line and under 5.00 with MRC-5 cell line.
Regarding `COc1cc(C(=O)NC2CCN(CCOCCOCCNc3cccc4c3CN(C3CCC(=O)NC3=O)C4=O)CC2)ccc1Nc1ncc2c(n1)N(C1CCCC1)CC(F)(F)C(=O)N2C` (stereo not drawn) [Compound 18, 4-((9-cyclopentyl-7,7-difluoro-5-methyl-6-oxo-6,7,8,9-tetrahydro-5H-pyrimido[4,5-b][1,4]diazepin-2-yl)amino)-N-(1-(2-(2-(2-((2-(2,6-dioxopiperidin-3-yl)-1-oxoisoindolin-4-yl)amino)ethoxy)ethoxy)ethyl)piperidin-4-yl)-3-methoxybenzamide], the “Activity: ratio” value at PLK1 is reported as “++ (++<0.6)”. Also, the pIC50 in the assay with NCI-H526 cell line is over 7.52; in the assay with MRC-5 cell line it was under 5.00.
Regarding `COc1cc(C(=O)NC2CCN(C(=O)CC3CCN(c4ccc5c(c4)C(=O)N(C4CCC(=O)NC4=O)C5=O)C3)CC2)c(F)cc1Nc1ncc2c(n1)N(C1CCCC1)CC(F)(F)C(=O)N2C` (stereo not drawn) [Compound 45, 4-((9-cyclopentyl-7,7-difluoro-5-methyl-6-oxo-6,7,8,9-tetrahydro-5H-pyrimido[4,5-b][1,4]diazepin-2-yl)amino)-N-(1-(2-(1-(2-(2,6-dioxopiperidin-3-yl)-1,3-dioxoisoindolin-5-yl)pyrrolidin-3-yl)acetyl)piperidin-4-yl)-2-fluoro-5-methoxybenzamide], the “Activity: ratio” value on PLK1 is listed as “++ (++<0.6)”. Besides, the pIC50 in the assay with NCI-H526 cell line is over 7.00; in the assay on MRC-5 cell line, under 5.00.
In the case of `COc1cc(C(=O)N[C@H]2CC[C@H](N3CCN(CCCNc4cccc5c4C(=O)N(C4CCC(=O)NC4=O)C5=O)CC3)CC2)c(F)cc1Nc1ncc2c(n1)N(C1CCCC1)CC(F)(F)C(=O)N2C` (stereo partly drawn) [Compound 197, 4-((9-cyclopentyl-7,7-difluoro-5-methyl-6-oxo-6,7,8,9-tetrahydro-5H-pyrimido[4,5-b][1,4]diazepin-2-yl)amino)-N-((1r,4r)-4-(4-(3-((2-(2,6-dioxopiperidin-3-yl)-1,3-dioxoisoindolin-4-yl)amino)propyl)piperazin-1-yl)cyclohexyl)-2-fluoro-5-methoxybenzamide], on PLK1, the “Activity: ratio” value was “++ (++<0.6)”. The pIC50 in the assay on NCI-H526 cell line is over 7.30; with MRC-5 cell line, 4.74.
Regarding `COc1cc(C(=O)NC2CCN(C(=O)CCN3CCN(c4cccc5c4CN(C4CCC(=O)NC4=O)C5=O)CC3)CC2)ccc1Nc1ncc2c(n1)N(C(C)C)CC(F)(F)C(=O)N2C` (stereo not drawn) [Compound 133, 4-((7,7-difluoro-9-isopropyl-5-methyl-6-oxo-6,7,8,9-tetrahydro-5H-pyrimido[4,5-b][1,4]diazepin-2-yl)amino)-N-(1-(3-(4-(2-(2,6-dioxopiperidin-3-yl)-1-oxoisoindolin-4-yl)piperazin-1-yl)propanoyl)piperidin-4-yl)-3-methoxybenzamide], the “Activity: ratio” value at PLK1 is given as “++ (++<0.6)”. Also, the pIC50 in the assay on NCI-H526 cell line is over 7.30; with MRC-5 cell line it was under 5.00.
Take `COc1cc(C(=O)N2CCC(N3CC4(CCN(c5cc6c(cc5F)C(=O)N(C5CCC(=O)NC5=O)C6=O)CC4)C3)CC2)ccc1Nc1ncc2c(n1)N(C(C)C)CC(F)(F)C(=O)N2C` (stereo not drawn) [Compound 215, 5-(2-(1-(4-((7,7-difluoro-9-isopropyl-5-methyl-6-oxo-6,7,8,9-tetrahydro-5H-pyrimido[4,5-b][1,4]diazepin-2-yl)amino)-3-methoxybenzoyl)piperidin-4-yl)-2,7-diazaspiro[3.5]nonan-7-yl)-2-(2,6-dioxopiperidin-3-yl)-6-fluoroisoindoline-1,3-dione]: at PLK1, the “Activity: ratio” value was “++ (++<0.6)”. In addition, the pIC50 with NCI-H526 cell line is over 6.40; with MRC-5 cell line, 4.79.
`COc1cc(C(=O)NC2CCN(C(=O)CCN3CCN(c4cccc5c4C(=O)N(C4CCC(=O)NC4=O)C5=O)CC3)CC2)ccc1Nc1ncc2c(n1)N(C1CCCC1)CC(C)(C)C(=O)N2C` (stereo not drawn) [Compound 121, 4-((9-cyclopentyl-5,7,7-trimethyl-6-oxo-6,7,8,9-tetrahydro-5H-pyrimido[4,5-b][1,4]diazepin-2-yl)amino)-N-(1-(3-(4-(2-(2,6-dioxopiperidin-3-yl)-1,3-dioxoisoindolin-4-yl)piperazin-1-yl)propanoyl)piperidin-4-yl)-3-methoxybenzamide]: on PLK1, the “Activity: ratio” value is given as “++ (++<0.6)”. In addition, the pIC50 in the assay with NCI-H526 cell line was over 6.70; with MRC-5 cell line, under 5.00.
